In patent US9339471B2, “Long acting dual release product containing carbinoxamine and pseudoephedrine” (E5 PHARMA, LLC, priority 2007, dated 2016):
Where two headings read alike, the source gives them in different places. Marks after values point to notes of the source that are not given here.

Legend:
[1] = cited from earlier work; for AUC(0-t): AUC0-24
[2] = Single dose fasted bioavailability study, 4 mg immediate release carbinoxamine maleate tablet; format: in vivo; design: Plasma concentration of carbinoxamine: unit not given here; details: for Cmax / Tmax / half-life / AUC(0-t) / MRT: 4 mg
From the text: (§1) A single dose fasted bioavailability study was undertaken using four milligram immediate release carbinoxamine maleate tablets formulated in an immediate release format. Samples were taken over a forty eight hours period after administration of the drug, and the first meal was allowed to be ingested four hours after administration. Table 3 compares the observed pharmacokinetics from this test to those observed by Stockis et al. in Arzneim.-Forsch 1992, 42(12):1478-81, and Stockis et al. in Arzneim.-Forsch 1995, 45(9) 1009-1012.
FIG. 1 is a mean plasma concentration-time profile of the carbinoxamine after administering the immediate release tablet in the fasted state from time 0 to time 48 hours. Graph (A) is the linear ordinate; graph (B) is the log-linear ordinate.

[3] = Literature 1 (Stockis et al. 1992): bioavailability of 8 mg aqueous solution and 8 mg retard capsule of carbinoxamine; details: in vivo, normalized to 4 mg dose
Protocol: The pharmacokinetics of carbinoxamine maleate have been reported in the literature. Stockis et al., Arzneim.-Forsch 1992, 42(12):1478-81, studied the bioavailability of an 8 mg aqueous solution of carbinoxamine and an 8 mg retard capsule of carbinoxamine.
as §1

[4] = cited from earlier work; for AUC(0-t): AUC0-6
[5] = Literature 1, Aqueous solution 8 mg
[6] = Literature 1, Retard capsule 8 mg
[7] = human, plasma, po, Our study, Tablet 4 mg
[8] = human, plasma, po, fasted, Mean
[9] = human, plasma, po, fasted, subject 101
[10] = human, plasma, po, fasted, subject 102
[11] = human, plasma, po, fasted, subject 103
[12] = po, Literature 1, Retard capsule 8 mg
[13] = 4 mg retard capsule, single administration
[14] = 4 mg retard capsule, successive administrations
[15] = Literature 2, Aqueous solution 4 mg
[16] = Literature 2, Retard capsule 4 mg
[17] = Literature 2, Retard capsule SS 4 mg, steady-state (q12 h)

For `CN(C)CCOC(c1ccc(Cl)cc1)c1ccccn1` (centres unmarked) [carbinoxamine, 2-[(4-chlorophenyl)-2-pyridinylmethoxy]-N,N-dimethylethanamine (Z)-2-butenedioate (1:1)], the Cmax ([1]; 8 mg aqueous solution) is given as 24 ng/mL, the half-life ([1]; 8 mg aqueous solution) is given as 10.6 h and the Cmax ([1]; 8 mg retard capsule) is given as 16.9 ng/mL. For the same compound, the Tmax ([1]; 8 mg retard capsule) was 8 h, the half-life ([1]; 8 mg retard capsule) was 14.5 h and the AUC(0-t) [1, 5] was 386^b ng/ml * h. The Cmax [1, 5] was 24 ng/mL, the T1/2 [1, 5] was 10.6 h and the AUC(0-t) [1, 6] was 238^b ng/ml * h. The Cmax [1, 6] was 16.9 ng/mL, the T1/2 [1, 6] was 14.5 h and the “Plasma concentration of carbinoxamine” value ([2]; fasted, 0 h, subject 101T) was “blq”. For the same compound, the “Plasma concentration of carbinoxamine” value ([2]; fasted, 0 h, subject 102T) was “blq”, the “Plasma concentration of carbinoxamine” value ([2]; fasted, 0 h, subject 103T) was “blq” and the “Plasma concentration of carbinoxamine” value ([2]; fasted, 0.5 h, T-Mean) was 315.41. The “Plasma concentration of carbinoxamine” value ([2]; fasted, 0.5 h, subject 101T) was 434.78, the “Plasma concentration of carbinoxamine” value ([2]; fasted, 0.5 h, subject 102T) was 459.42 and the “Plasma concentration of carbinoxamine” value ([2]; fasted, 0.5 h, subject 103T) was 52.04. For the same compound, the “Plasma concentration of carbinoxamine” value ([2]; fasted, 1 h, T-Mean) was 4153.31, the “Plasma concentration of carbinoxamine” value ([2]; fasted, 1 h, subject 101T) was 5908.19 and the “Plasma concentration of carbinoxamine” value ([2]; fasted, 1 h, subject 102T) was 4949.36. The “Plasma concentration of carbinoxamine” value ([2]; fasted, 1 h, subject 103T) was 1602.38, the “Plasma concentration of carbinoxamine” value ([2]; fasted, 2 h, T-Mean) was 6406.31 and the “Plasma concentration of carbinoxamine” value ([2]; fasted, 2 h, subject 101T) was 6488.14. The “Plasma concentration of carbinoxamine” value ([2]; fasted, 2 h, subject 102T) was 5684.72, the “Plasma concentration of carbinoxamine” value ([2]; fasted, 2 h, subject 103T) was 7046.07 and the “Plasma concentration of carbinoxamine” value ([2]; fasted, 3 h, T-Mean) was 7062.72. For the same compound, the “Plasma concentration of carbinoxamine” value ([2]; fasted, 3 h, subject 101T) was 8022.80, the “Plasma concentration of carbinoxamine” value ([2]; fasted, 3 h, subject 102T) was 6592.16 and the “Plasma concentration of carbinoxamine” value ([2]; fasted, 3 h, subject 103T) was 6573.21. The “Plasma concentration of carbinoxamine” value ([2]; fasted, 4 h, T-Mean) was 6647.30, the “Plasma concentration of carbinoxamine” value ([2]; fasted, 4 h, subject 101T) was 7860.85 and the “Plasma concentration of carbinoxamine” value ([2]; fasted, 4 h, subject 102T) was 6236.91. For the same compound, the “Plasma concentration of carbinoxamine” value ([2]; fasted, 4 h, subject 103T) was 5854.14, the “Plasma concentration of carbinoxamine” value ([2]; fasted, 5 h, T-Mean) was 6515.83 and the “Plasma concentration of carbinoxamine” value ([2]; fasted, 5 h, subject 101T) was 7726.57. For the same compound, the “Plasma concentration of carbinoxamine” value ([2]; fasted, 5 h, subject 102T) was 6649.03, the “Plasma concentration of carbinoxamine” value ([2]; fasted, 5 h, subject 103T) was 5171.89 and the “Plasma concentration of carbinoxamine” value ([2]; fasted, 6 h, T-Mean) was 5903.78. The “Plasma concentration of carbinoxamine” value ([2]; fasted, 6 h, subject 101T) was 7251.86, the “Plasma concentration of carbinoxamine” value ([2]; fasted, 6 h, subject 102T) was 6097.18 and the “Plasma concentration of carbinoxamine” value ([2]; fasted, 6 h, subject 103T) was 4362.30. For the same compound, the “Plasma concentration of carbinoxamine” value ([2]; fasted, 8 h, T-Mean) was 5510.70, the “Plasma concentration of carbinoxamine” value ([2]; fasted, 8 h, subject 101T) was 6849.38 and the “Plasma concentration of carbinoxamine” value ([2]; fasted, 8 h, subject 102T) was 5707.15. For the same compound, the “Plasma concentration of carbinoxamine” value ([2]; fasted, 8 h, subject 103T) was 3975.57, the “Plasma concentration of carbinoxamine” value ([2]; fasted, 12 h, T-Mean) was 4292.77 and the “Plasma concentration of carbinoxamine” value ([2]; fasted, 12 h, subject 101T) was 5821.63. For the same compound, the “Plasma concentration of carbinoxamine” value ([2]; fasted, 12 h, subject 102T) was 4387.40, the “Plasma concentration of carbinoxamine” value ([2]; fasted, 12 h, subject 103T) was 2669.29 and the “Plasma concentration of carbinoxamine” value ([2]; fasted, 24 h, T-Mean) was 2144.60. For the same compound, the “Plasma concentration of carbinoxamine” value ([2]; fasted, 24 h, subject 101T) was 2632.77, the “Plasma concentration of carbinoxamine” value ([2]; fasted, 24 h, subject 102T) was 2395.51 and the “Plasma concentration of carbinoxamine” value ([2]; fasted, 24 h, subject 103T) was 1405.53. The “Plasma concentration of carbinoxamine” value ([2]; fasted, 36 h, T-Mean) was 1371.30, the “Plasma concentration of carbinoxamine” value ([2]; fasted, 36 h, subject 101T) was 1541.30 and the “Plasma concentration of carbinoxamine” value ([2]; fasted, 36 h, subject 102T) was 1516.80. The “Plasma concentration of carbinoxamine” value ([2]; fasted, 36 h, subject 103T) was 1055.79, the “Plasma concentration of carbinoxamine” value ([2]; fasted, 48 h, T-Mean) was 876.29 and the “Plasma concentration of carbinoxamine” value ([2]; fasted, 48 h, subject 101T) was 1102.33. For the same compound, the “Plasma concentration of carbinoxamine” value ([2]; fasted, 48 h, subject 102T) was 1003.18, the “Plasma concentration of carbinoxamine” value ([2]; fasted, 48 h, subject 103T) was 528.37 and the Cmax [2, 7] was 7.2 ng/mL. It also gave a Tmax [2, 7] of 3.3 h, a half-life [2, 7] of 18.3 h and an AUC(0-t) [2, 8] of 161 ng·h/mL. It also gave a Cmax [2, 8] of 7.24 ng/mL, an MRT [2, 8] of 24.1 h and a Tmax [2, 8] of 3.33 h. For the same compound, the half-life [2, 8] was 18.4 h, the AUC(0-t) ([2]; human, plasma, po, fasted, Mean, first AUC column) was 137 ng·h/mL and the Cmax [2, 9] was 8.02 ng/mL. The MRT [2, 9] was 24.7 h, the Tmax [2, 9] was 3 h and the half-life [2, 9] was 19.1 h. The AUC(0-t) ([2]; human, plasma, po, fasted, subject 101, first AUC column) was 169 ng·h/mL, the AUC(0-t) ([2]; human, plasma, po, fasted, subject 101, second AUC column) was 200 ng·h/mL and the Cmax [2, 10] was 6.65 ng/mL. For the same compound, the MRT [2, 10] was 25.9 h, the Tmax [2, 10] was 5 h and the half-life [2, 10] was 19.1 h. It also gave an AUC(0-t) ([2]; human, plasma, po, fasted, subject 102, first AUC column) of 143 ng·h/mL, an AUC(0-t) ([2]; human, plasma, po, fasted, subject 102, second AUC column) of 171 ng·h/mL and a Cmax [2, 11] of 7.05 ng/mL. For the same compound, the MRT [2, 11] was 21.7 h, the Tmax [2, 11] was 2 h and the half-life [2, 11] was 16.8 h. For the same compound, the AUC(0-t) ([2]; human, plasma, po, fasted, subject 103, first AUC column) was 98.4 ng·h/mL, the AUC(0-t) ([2]; human, plasma, po, fasted, subject 103, second AUC column) was 111 ng·h/mL and the AUC ([2]; human, plasma, po, Our study, Tablet 4 mg, read-out: AUC0-* ·) was 161 ng·h/mL. For the same compound, the AUC(0-t) ([2]; plasma, po, Our study, Tablet 4 mg, AUC0-48) was 137 ng·h/mL, the AUC(0-t) [3, 12] was 119 ng·h/mL and the Cmax [3, 12] was 8.45 ng/mL. For the same compound, the AUC(0-t) [3, 5] was 143 ng·h/mL, the Cmax [3, 5] was 12 ng/mL and the Cmax [4, 13] was 4.5 ng/mL. The Tmax [4, 13] was 6.2 h, the half life [4, 13] was 30 h and the Cmax [4, 14] was 13.5 ng/mL. The Tmax [4, 14] was 4.8 h, the half life [4, 14] was 22 h and the AUC(0-t) [4, 15] was 64^c ng/ml * h. The Cmax [4, 15] was 6.5 ng/mL, the T1/2 [4, 15] was 15 h and the Tmax [4, 15] was 2.6 h. For the same compound, the AUC(0-t) [4, 16] was 57^c ng/ml * h, the Cmax [4, 16] was 4.5 ng/mL and the T1/2 [4, 16] was 30 h. The Tmax [4, 16] was 6.2 h, the “AUC0-* ·” value [4, 17] was 125 ng·h/mL and the Cmax [4, 17] was 13.5 ng/mL. For the same compound, the T1/2 [4, 17] was 22 h and the Tmax [4, 17] was 4.8 h.
